# Source: patent US10759740B2, “Antibacterial agents” (Rutgers, The State University of New Jersey, priority 2016, dated 2020)
# Key:
# [1] = tested on: S. aureus; assay: SEM and TEM of treated bacteria; type: cell-based, Staphylococcus aureus; settings: at MIC, 1 h
# Method: (§1) Bacteria were grown to the mid-exponential growth phase. Silicon wafers were submerged in the bacterial solutions in the presence or absence of CAMs at their respective MICs and incubated for 1 h. 0.25% glucose was added to facilitate attachment. The bacteria on wafers were fixed in 2.5% glutaraldehyde for 1 h at room temperature, washed three times with PBS, and postfixed 1% osmium tetroxide. The samples were then dehydrated in a graded series of ethanol solutions (50%, 70%, 80%, 95%, 100%), dried with graded hexamethyldisilazane (50%, 100%), and left to air dry for two days. After drying, the wafers were mounted on stub and sputter-coated with 20 nm gold prior to inspection under microscope (Zeiss Sigma Field Emission SEM, Carl Zeiss, Ontario, Calif.) at 5 kV.
# (§2) Bacteria were grown as described above for SEM sample preparation. In brief, bacteria were incubated in the presence or absence of CAMs at their respective MICs for 1 h. After centrifugation at 500×g for 10 min, the resulting pellet was fixed in 2.5% glutaraldehyde, washed three times with PBS, and postfixed with 1% osmium tetroxide. The samples were then dehydrated with graded ethanol series (50%, 70%, 80%, 95%, 100%) and embedded in epoxy resin (Dr. Spurr's kit, Electron Microscopy Sciences, Hatfield, Pa.). Ultrathin sections of the cells were stained with 1% uranyl acetate. […]
# [2] = tested on: E. coli; assay: SEM and TEM of treated bacteria; type: cell-based, Escherichia coli; settings: at MIC, 1 h
# Method: as §1, §2
# [3] = tested on: G. vaginalis pre-formed biofilms; assay: MBC-B against pre-formed biofilms (Example 2); type: cell-based; settings: pre-formed biofilm, ≥3 log reduction in viable cells
# Method: (§3) The minimum biofilm bactericidal concentrations (MBC-Bs) of the cationic amphiphiles against pre-formed biofilms of L. monocytogenes and G. vaginalis were identified. The biofilms of the two targeted microorganisms were grown in 96-well plates according to established methodology for Gram-positive and Gram-variable bacteria (Tabak et al., FEMS microbiology letters. 2009; 301(1):69-76). To identify the reduction in the number of biofilm-associated viable cells treated with different concentrations of cationic amphiphiles, the spot plate method was used (Turovskiy et al., Infectious diseases in obstetrics and gynecology. 2012; 2012:284762, 9 pages). In brief, biofilms were washed, disrupted, diluted 10^1-10^8 times with fresh medium and the samples plated on suitable solid medium.
# [4] = tested on: L. monocytogenes pre-formed biofilms; assay: MBC-B against pre-formed biofilms (Example 2); type: cell-based; settings: pre-formed biofilm, ≥3 log reduction in viable cells
# Method: as §3
# [5] = tested on: G. vaginalis pre-formed biofilms; assay: Biofilm removal (FIG. 5); type: cell-based; settings: 250 μg/mL against pre-formed biofilms
Compound,ultrastructural changes (TEM) [1],ultrastructural changes (TEM) [2],MBC-B G. vaginalis [3],"MBC-B, L. monocytogenes [4]",removal of biofilm structures [5]
CCCCCCCCCCOC(C(=O)NCCN)C(OCCCCCCCCCC)C(=O)NCCN.Cl.Cl (stereo not shown) [5b],profound internal damage,extensive ultrastructural damage,approximately 31.25 μg/mL,approximately 250 μg/mL,up to 70%
CCCCCCCCCC(=O)OC(C(=O)NCCN)C(OC(=O)CCCCCCCCC)C(=O)NCCN.Cl.Cl (stereo not shown) [8b],–,–,approximately 31.25 μg/mL,approximately 250 μg/mL,–
